Experimental data from patent US8124111B2, “Immunomodulation by altering sphingosine 1-phosphate lyase (SPL) activity” (Children's Hospital & Research Center at Oakland, priority 2005, dated 2012).

Columns and labels:
SPL [1] = molecular target: T1, SPL (Homo sapiens, UniProt O95470); details: cited from earlier work
T1 sequence (O95470 1-568): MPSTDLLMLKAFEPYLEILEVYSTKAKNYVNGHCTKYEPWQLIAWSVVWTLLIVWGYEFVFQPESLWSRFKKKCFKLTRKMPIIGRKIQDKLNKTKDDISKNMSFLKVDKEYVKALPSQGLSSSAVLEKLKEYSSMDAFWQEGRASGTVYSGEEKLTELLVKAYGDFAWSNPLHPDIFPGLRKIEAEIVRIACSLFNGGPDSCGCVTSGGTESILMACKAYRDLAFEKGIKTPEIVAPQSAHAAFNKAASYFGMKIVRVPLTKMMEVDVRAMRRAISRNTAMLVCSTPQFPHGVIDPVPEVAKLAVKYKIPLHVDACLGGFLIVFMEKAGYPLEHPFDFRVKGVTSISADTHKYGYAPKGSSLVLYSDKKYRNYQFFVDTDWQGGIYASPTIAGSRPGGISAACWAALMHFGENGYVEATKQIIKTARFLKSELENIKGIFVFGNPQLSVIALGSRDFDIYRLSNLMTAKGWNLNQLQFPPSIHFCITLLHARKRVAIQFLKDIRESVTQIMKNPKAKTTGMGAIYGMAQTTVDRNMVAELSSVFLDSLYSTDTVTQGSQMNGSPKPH

[2] = tested on: human SPL luciferase reporter construct; test: SPL gene expression, human SPL luciferase reporter in HEK293 cells; type: cell-based; details: 0.3 μM or 3.0 μM, 24 hours
Experimental: (A) SPL gene expression. HEK293 cells were co-transfected with a human SPL luciferase reporter construct and the sea pansy luciferase reporter as a control for transfection efficiency. Twenty-four hours after transfection, cells were treated with 0.3 μM FTY720, 3.0 μM FTY720 or vehicle and incubated for another 24 hours at 37° C. Luciferase activity was then determined as a measure of expression, as described in Experimental Methods. Values shown are luciferase activity normalized to sea pansy luciferase; (B) SPL protein expression. Thymic extracts from control mice (time 0) and mice treated with FTY720 for 24 hours were evaluated for SPL protein expression by immunoblotting. Actin was used as a loading control.
SPL expression: To evaluate the effect of FTY720 and FTY720-P on SPL gene expression, HEK293 cells were treated for 30 minutes with 3 μM of either drug, followed by transfection with pSPL-BamHI, a human SPL-luciferase reporter construct. After 48 hours, reporter expression was determined by luciferase activity as described (Oskouian et al., (2005) J Biol Chem 280, 18403-18410)). Western blotting of mouse tissue extracts was performed using a 1:2000 dilution of polyclonal sera raised against the murine SPL C-terminal peptide: (NH2)—V-T-Q-G-N-Q-M-N-G-S—P—K—P—R—(COOH). [SEQ ID NO:11] […]

SPL [3] = molecular target: T1, SPL; test: FTY720-P metabolism: stability in the presence of SPL, recovery quantified by HPLC; type: biochemical; set-up: expressed in transfected cells; host or cells: HEK293 infected with adenoviral vector; details: for stability in the presence of SPL (amount recovered by HPLC): incubated 0-24 hours with extracts of HEK293 cells overexpressing human SPL, standard SPL reaction conditions
Experimental: (A) Twenty nanomoles of FTY720-P were incubated with SPL enzyme for 0-24 hours under standard SPL reaction conditions in the absence of dihydrosphingosine 1-phosphate substrate. At the indicated times the reaction was stopped, and FTY720-P was recovered and quantified by HPLC. (B) Twenty nanomoles of S1P were incubated with extracts from cells overexpressing SPL for 0-24 hours, or alternatively, with extracts from cells containing pcDNA3.0 vector control which had no appreciable SPL activity (PC) for 2 hours. S1P was recovered and quantified by HPLC.
FTY720-P metabolism: Whole cell extracts of HEK293 cells stably overexpressing human SPL were prepared as previously described (Reiss et al., (2004) J Biol Chem 279, 1281-1290). These extracts contained approximately 700 picomoles/mg protein/minute of SPL activity. Twenty nanomoles FTY720-P were suspended in SPL reaction buffer (Van Veldhoven et al., (1991) J Biol Chem 266, 12502-12507), and 25 microliters of whole cell extract were added to initiate the reaction. At various time points, reaction was stopped by addition of a 2 ml mixture of chloroform and methanol (2:1 v/v), 1 ml of 1M KCl, 0.1 ml concentrated HCl. Sample was mixed by vortexing and centrifuged at 1200 rpm for 5 min. […] After derivatization with OPA, the sample was injected onto the HPLC for quantification. The HPLC analysis was conducted using a Beckman (Torrance, Calif., USA) system Gold 125 solvent module with a Spectra-Physics SP8410 fluorescence detector and a C18 (2) Luna 3 μm, 75×4.6 mm column from Phenomenex (CA). […] Recovery of S1P was determined by HPLC quantitation, as described below for S1P measurements in mouse tissues.
Confirmation of FTY720-P by LCMS: Samples corresponding to FTY720-P peak identified on HPLC were evaluated by LCMS to confirm FTY720-P by mass analysis. Twenty microliters of sample were injected into the LCMS and mass spectrum scans from 300 to 500 m/z and specific ions m/Z 388 and 410 were quantified for FTY720-P. A reverse phase C18 column from Phenomenex (2.1 mm×15 cm) was used. […]

SPL [4] = molecular target: T1, SPL; test: Inhibition of SPL activity in vitro (whole cell extracts of HEK293 cells with human SPL adenoviral construct); type: biochemical; set-up: expressed in transfected cells; host or cells: HEK293 infected with adenoviral vector
Experimental: Various concentrations of FTY720 or its phosphorylated derivative (FTY720P) were incubated for 30 minutes on ice with whole cell extracts containing high SPL activity by virtue of a human SPL adenoviral expression construct. SPL activity was determined. (A) FTY720; (B) FTY720-P.
SPL enzyme assay: Tissues were homogenized by sonication in 9 volumes of ice-cold homogenization buffer (5 mM MOPS pH 7.5, 1 mM DTT, 1 mM EDTA, 0.25 M sucrose, and 5 micrograms/ml each chymostatin, leupeptin, pepstatin A and antipain). SPL assays were conducted using 50 micrograms protein per assay and radioactive [4,5 ^3H]DHS1P substrate, as described previously (Reiss et al., (2004) J Biol Chem 279, 1281-1290). For in vitro FTY720 and FTY720-P experiments, drug was incubated with whole cell extracts prepared from HEK293 cells infected with an adenoviral vector expressing human SPL. These extracts contained approximately 200 picomoles/mg protein/minute SPL activity. Drug was incubated with extracts for 30 minutes, followed by addition of extracts to reaction buffer and substrate to initiate the reaction.
Although treatment with FTY720 was associated with low (nanomolar) circulating drug levels, it was possible that local concentrations within cells and subcellular compartments may have been considerably higher, since FTY720 has been reported to be actively transported into cells by the actions of drug transporters that recognize long chain bases (Honig et al., (2003) J Clin Invest 111, 627-637).

[5] = tested on: C3H murine splenocytes and thymocytes
Experimental: Cellular Immune Functions—Mitogen Induced Lymphoproliferation: Spleen and thymus tissues were harvested from wild type C3H mice, and cell suspensions were prepared as described previously (Mishell et al., (1980) in Selected Methods in Cellular Immunology (Mishell, B., and Shiigi, S., eds), pp. 3-27, WH Freeman and Company, San Francisco). Cells were dispersed in sterile medium in 96 well microtiter plates (Falcon) at a concentration of 1×10^6 cells/ml for spleen and 5×10^6 cells/ml for thymus. […] Cell proliferation was determined after 48 and 72 hours using the Cell Titer 96 Non-Radioactive Cell Proliferation Assay from Promega (Mannheim, Germany), according to the manufacturer's instructions.

SMILES: CCCCCCCCCCCCCCCC(=O)N[C@@H](CO)[C@H](O)C1=C(CCCCCCCCCCCCC)C1 [C16-cyclopropenylceramide]
- altering SPL activity (SPL [1]): capable of altering SPL activity

SMILES: CCCCCCCCc1ccc(CC[C@](N)(CO)COP(=O)(O)O)cc1 [FTY720-P]
- SPL gene expression (luciferase activity normalized to sea pansy luciferase) [2]: not affected
- stability in the presence of SPL (amount recovered by HPLC) (SPL [3]): remained stable for up to 24 hours
- substrate for SPL (SPL [3]; standard conditions): did not serve as a substrate for SPL
- dose dependence of SPL inhibition in vitro (SPL [4]): not dose-dependent
- only concentration that was inhibitory to SPL activity in vitro (SPL [4]; 30 minutes incubation with extracts): 30 µM

SMILES: Cc1ncc(CO)c(C)c1O [deoxypyridoxine]
- altering SPL activity (SPL [1]): capable of altering SPL activity

SMILES: CCCCCCCCCCCCCC1=C([C@@H](O)[C@H](CO)NC(=O)CCCCCCC)C1 [GT11, C8-cyclopropenylceramide]
- non-specific cytotoxic effects (light microscopy) [5]: negligible
- LPS-stimulated lymphoproliferation ([5]; two different dosages, 24 hours preincubation, 1 or 10 μg/ml LPS, read after 48 and 72 hours): reduced
- altering SPL activity (SPL [1]): capable of altering SPL activity

SMILES: CCCCCCCCCCCCC/C=C/[C@@H](O)[C@@H](N)COP(=O)(O)O [S1P, Sphingosine-1-phosphate]
- stability in the presence of SPL (amount recovered by HPLC) (SPL [3]): diminished
